{
  "source": "patent US8420777B2",
  "about": "“Compounds that inhibit Hsp90 protein-protein interactions with IAP proteins” (University of Massachusetts, priority 2004, dated 2013)",
  "key": {"HeLa cells [1]": {"system": "HeLa cells", "test": "Multiparametric flow cytometry of caspase activity and membrane integrity", "assay_type": "cell-based, Human", "conditions": "increasing concentrations, 24 hours", "experimental": "(§1) For multiparametric analysis of caspase-dependent cell death and loss of plasma membrane integrity, HeLa, MCF-7, or genetically engineered HCT116 cells (obtained from ATCC) were loaded with increasing concentrations of cell permeable control scrambled peptide or the Survivin peptide, harvested after culturing for 24 hours at 37° C., and analyzed for cell viability (propidium iodide, red channel) and active caspase-3 activity (CaspaTag™ from Intergen, Purchase, N.Y., green channel) by flow cytometry.\nCells were harvested after 24 hours of incubation with peptide and simultaneously analyzed for caspase activity by DEVDase activity (X-axis, green fluorescence) and cell membrane integrity by propidium iodide staining (Y-axis, red fluorescence). Cells in the upper right quadrant correspond to the population with elevated caspase activity and loss of cell membrane integrity (apoptotic)."}, "PC3 cells": {"system": "PC3 cells", "test": "Immunoblotting of Hsp90 client proteins", "assay_type": "cell-based", "conditions": "75 and 150 μM, 8 hours", "experimental": "Survivin affects the stability and function of Hsp90 client proteins in tumor cells. PC3 cells were untreated or exposed to 75 and 150 μM concentrations of the survivin peptide (SEQ ID NO:19) (or control scrambled peptide; SEQ ID NO:25) for 8 hours and processed for immunoblotting against the Hsp90 client proteins survivin, AKT, and CDK-6. […] Conversely, the levels of Hsp90, Hsp70, and PCNA were not affected (FIG. 26A)."}, "[2]": {"system": "HCT116 colorectal cancer cells (p53+/+ or p53-/-)", "test": "Multiparametric flow cytometry of caspase activity and membrane integrity", "assay_type": "cell-based", "parameters": "dose or concentration left out as unconfirmed", "conditions": "24 hours, p53+/+ versus p53-/-", "experimental": "as §1\nIn these experiments, HCT116 colorectal cancer cells carrying wild type p53 (p53^+/+) or homozygously inactivated p53 (p53^−/−) (Bunz et al., Science, 282:1497-1501 (1998))) were incubated with […] of cell permeable Control (SEQ ID NO:25) or Survivin (SEQ ID NO:19) cell permeable peptide, harvested after 24 hours and analyzed by multiparametric flow cytometry of induction of caspase activity and loss of cell membrane integrity."}, "HeLa cells [3]": {"system": "HeLa cells", "test": "Annexin V labeling and propidium iodide multiparametric flow cytometry", "assay_type": "cell-based, Human", "conditions": "increasing concentrations, eight hour incubation, 37° C.", "experimental": "HeLa cell cultures were treated with the indicated increasing concentrations of P31 (Survivin) or P33 (Control; SEQ ID NO:25) peptides, harvested after an eight hour incubation at 37° C., and analyzed for multiparametric flow cytometry of Annexin V labeling (X-axis, a marker of apoptosis) and propidium iodide staining (Y-axis, a marker of cell death)."}, "[4]": {"system": "U937, K562, HL60, THP1 AML cell lines", "test": "MTT cell viability in AML cell lines", "assay_type": "cell-based, human", "experimental": "FIG. 30 is a graph depicting killing activity of survivin K79-G83 in AML cells. The indicated human AML cell lines (U937, K562, HL60, and THP1) were incubated with scrambled (SEQ ID NO:28) or Survivin (SEQ ID NO:20) peptides and evaluated for cell viability by MTT.\nThe effect of the K79-G83 Survivin peptide was characterized in more detail for anti-tumor activity in AML. The K79-L87 (SEQ ID NO:19) and K79-G83 peptides (SEQ ID NO:20) were incubated with AML cells, and cell viability was measured using MTT."}, "HeLa cells [5]": {"system": "HeLa cells", "test": "Apoptosis by hypodiploid DNA content, propidium iodide flow cytometry", "assay_type": "cell-based, Human", "conditions": "24 hours", "experimental": "For determination of apoptosis by hypodiploid DNA content, various tumor cell lines were incubated with increasing concentrations of the cell permeable control scrambled (SEQ ID NO:25) or Survivin peptide (SEQ ID NO:19), harvested after 24 hours (floaters plus attached cells) fixed in 70% ethanol, and stained with 10 μg/ml propidium iodide plus 100 μg/ml RNAse A and 0.05% Triton™ X-100 in PBS, pH 7.4. Cultures were analyzed for DNA content by flow cytometry. For colorimetric quantification of cell viability, an MTT assay was used. Various tumor cell lines were incubated with increasing concentrations of the cell permeable retro-inverso control scrambled P4 or the Survivin-specific P3 peptide, incubated for 24 hours at 37° C. washed twice with Bruffs Media, and 4,5-dimethylthiazol-2-yl)-2,5-diphenyltetrazolium bromide (MTT) (Sigma, St. Louis, Mo.) was added at 5 mg/ml. Decrease in cell viability was analyzed for loss of colorimetric absorption at OD405.\nHeLa cells were incubated with the indicated increasing concentrations of the cell permeable Control (scrambled) or Survivin peptide, harvested after 24 hours at 37° C., and analyzed by hypodiploid DNA content by propidium iodide staining and flow cytometry.\nHeLa cells were incubated with chemotherapeutic drugs Taxol™ (10 μM) or adriamycin (300 nM), or cell permeable control peptide or the Survivin peptide, harvested after 24 hours, and analyzed for induction of apoptosis by hypodiploid DNA content by flow cytometry."}, "recombinant Hsp90": {"target": "T1, recombinant Hsp90 (Homo sapiens, UniProt P07900, S63T)", "T1 construct": "GST-Hsp90 (amino acids 1-732); GST (N); made in house; host or cells: E. coli", "test": "ELISA binding to recombinant Hsp90", "description": "FIG. 31 is a graph depicting Hsp90 binding by Survivin peptides, measured by ELISA. Data are the mean±S.D. of two independent experiments."}},
  "data": [
    {"sequence": "RQIKIWFQNRRMKWKKKHSSGCAFL (Synthetically generated peptide) [P31]", "values": [
      {"measurement": "cell death (caspase activity and loss of plasma membrane integrity)", "setting": "HeLa cells [1]", "result": "induces cell death more efficiently than scrambled control peptide"},
      {"measurement": "Hsp90 client proteins (survivin, Akt, CDK-4, CDK-6)", "setting": "PC3 cells", "result": "caused disappearance of multiple Hsp90 client proteins"},
      {"measurement": "levels of Hsp90, Hsp70, and PCNA", "setting": "PC3 cells", "result": "not affected"},
      {"measurement": "accumulation of cells with high caspase activity and loss of plasma membrane integrity", "setting": "[2]", "result": "indistinguishable between p53^+/+ and p53^−/− HCT116 cells"},
      {"measurement": "induction of apoptosis (Annexin V / propidium iodide)", "setting": "HeLa cells [3]", "result": "induced apoptosis in a dose-dependent manner"},
      {"measurement": "cell viability (MTT), killing of AML cell lines", "setting": "[4]", "result": "efficiently killed all AML cell lines tested"},
      {"measurement": "cell viability reflected by hypodiploid DNA content", "setting": "HeLa cells [5]; increasing concentrations, 37° C.", "result": "massive loss of cell viability"},
      {"measurement": "cell population with hypodiploid DNA content (apoptotic)", "setting": "HeLa cells [5]; peptides, comparison with chemotherapeutic drugs", "result": "results in the appearance of a large cell population with hypodiploid DNA content"},
      {"measurement": "binding to recombinant Hsp90 in vitro", "setting": "recombinant Hsp90", "result": "comparably bound recombinant Hsp90"}
    ]}
  ]
}
